Data reported in ChEMBL document CHEMBL4014333, “Discovery of Small Molecules for Repressing Cap-Independent Translation of Human Vascular Endothelial Growth Factor (hVEGF) as Novel Antitumor Agents” (J Med Chem, 2017).
Calls of active or inactive are those of the source. The calls are words filed in the database; no cut-off is given here.

Columns and labels:
[1] = test system: MCF7; experiment: Antitumor activity against human MCF7 cells xenografted in nude Balb/c mouse assessed as tumor volume at 7.5 mg/kg, ip qd for 20 days (Rvb >700 mm3); format: functional
[2] = species on record: Homo sapiens; experiment: Inhibition of BG4 antibody binding to biotin-labeled human wild type internal ribosome entry site A RNA G-quadruplex at 1.25 to 10 uM after 3 hrs by filter binding assay
[3] = Binding affinity to 5'- FAM-labeled c-Kit1 G-quadruplex DNA (unknown origin) up to 100 uM after 5 mins by MST analysis
[4] = species on record: Homo sapiens; experiment: Destabilization of human 5'-UGAUGAGUGUGAGUAGUA-3' RNA expressed in MCF7 cells assessed as down regulation of VEGF-A translation at 0.1875 to 1.5 uM after 24 hrs by dual-luciferase reporter gene assay; format: cell-based
[5] = test system: MCF7; experiment: Effect on human VEGF-A transcription expressed in human MCF7 cells assessed as Met luciferase gene expression at 0.1875 to 3 uM by RT-PCR analysis; format: functional, cell-based
[6] = species on record: Homo sapiens; experiment: Inhibition of NT-647 dye-labeled BG4 antibody binding to human 5'-UGAUGAGUGUGAGUAGUA-3' RNA by MST analysis
[7] = species on record: Homo sapiens; experiment: Inhibition of FLAG-labeled BG4 antibody binding to human wild type internal ribosome entry site A RNA G-quadruplex at 1.25 to 10 uM preincubated with RNA followed by antibody addition by pull-down assay
[8] = species on record: Homo sapiens; experiment: Destabilization of human wild type internal ribosome entry site A RNA G-quadruplex assessed as melting temperature at 5 uM by CD spectra method (reference value: 80.9 +/- 0.8 degreeC)
[9] = Binding affinity to 5'- FAM-labeled human 5'-UGAUGAGUGUGAGGAGGA-3' RNA G-quadruplex after 5 mins by MST analysis
[10] = species on record: Homo sapiens; experiment: Destabilization of human 5'-FAM-labeled 5'-UGAUGAGUGUGAGUAGUA-3' RNA up to 10 uM measured after 3 hrs by electrophoresis mobility shift assay
[11] = species on record: Homo sapiens; experiment: Inhibition of BG4 protein binding to human wild type internal ribosome entry site A RNA G-quadruplex in MCF7 cells transfected with pcDNA3.1-BG4 plasmid at 2.5 to 5 uM after 24 hrs by RT-PCR analysis; format: cell-based
[12] = Binding affinity to 5'- FAM-labeled wild type human internal ribosome entry site A RNA G-quadruplex after 5 mins by MST analysis
[13] = test system: MCF7; experiment: Cytotoxicity against human MCF7 cells after 48 hrs relative to control; format: cell-based; conditions: mcf7, 48 h
[14] = Binding affinity to BCL-2 RNA G-quadruplex (unknown origin) at 1 uM after 24 hrs by spectrophotometric method
[15] = species on record: Homo sapiens; experiment: Destabilization of human internal ribosome entry site A RNA G-quadruplex by CD spectral analysis
[16] = Binding affinity to C-kit 1 DNA G-quadruplex (unknown origin) at 1 uM after 24 hrs by spectrophotometric method
[17] = species on record: Homo sapiens; experiment: Destabilization of human wild type internal ribosome entry site A RNA G-quadruplex expression in human MCF7 cells assessed as decrease in VEGF-A protein expression at 0.1875 to 3 uM by Western blot analysis; format: cell-based
[18] = species on record: Homo sapiens; experiment: Binding affinity to internal ribosome entry site A RNA G-quadruplex region of human VEGF-A 5'-UTR at 10 uM by PCR stop assay
[19] = species on record: Homo sapiens; experiment: Binding affinity to 5'- FAM-labeled human 5'-UGAUGAGUGUGAGUAGUA-3' RNA at 100 uM after 5 mins by MST analysis
[20] = species on record: Homo sapiens; experiment: Inhibition of BG4 protein binding to human wild type internal ribosome entry site A RNA G-quadruplex in MCF7 cells transfected with pcDNA3.1-BG4 plasmid at 2.5 to 5 uM after 24 hrs by qRT-PCR analysis; format: cell-based
[21] = Binding affinity to RNA (unknown origin) at 1 uM after 24 hrs by spectrophotometric method
[22] = Binding affinity to biotin-labeled human wild type internal ribosome entry site A RNA G-quadruplex by SPR analysis
[23] = species on record: Homo sapiens; experiment: Binding affinity to wild type human internal ribosome entry site A RNA G-quadruplex at 1 uM after 24 hrs by spectrophotometric method
[24] = species on record: Homo sapiens; experiment: Binding affinity to human 5'-AGGAGCCGCAGCCGGAAGAGGAGAGGGGGCCGC-3' DNA at 1 uM after 24 hrs by spectrophotometric method
[25] = Binding affinity to c-MYC Pu27 DNA G-quadruplex (unknown origin) at 1 uM after 24 hrs by spectrophotometric method
[26] = test system: MCF7; experiment: Antitumor activity against human MCF7 cells xenografted in nude Balb/c mouse assessed as reduction in tumor weight at 7.5 mg/kg, ip qd for 20 days relative to control; format: functional; set-up: scale not given: the % may be the effect or the level left
[27] = species on record: Bos taurus; experiment: Binding affinity to calf thymus DNA at 1 uM after 24 hrs by spectrophotometric method
[28] = species on record: Homo sapiens; experiment: Binding affinity to internal ribosome entry site A RNA G-quadruplex region of VEGF-A protein in human MDA-MB-231 cells assessed as inhibition of VEGF-A protein induced cell migration at 0.5 to 8 uM after 4 hrs by RTCA method; format: cell-based
[29] = test system: MCF7; experiment: Cytotoxicity against human MCF7 cells after 24 hrs relative to control; format: cell-based; conditions: mcf7, 24 h
[30] = Binding affinity to NRAS-RNA G-quadruplex (unknown origin) at 1 uM after 24 hrs by spectrophotometric method
[31] = test system: MCF7; experiment: Effect on BG4 protein expression in human MCF7 cells up to 1.5 uM by Western blot method; format: ADME, cell-based
[32] = test system: MCF7; experiment: Effect on human wild type internal ribosome entry site A RNA G-quadruplex transcription expressed in human MCF7 cells assessed as Met luciferase gene expression at 0.1875 to 1.5 uM after 20 hrs by RT-PCR analysis; format: functional, cell-based
[33] = Binding affinity to biotin-labeled DNA hairpin (unknown origin) by SPR analysis
[34] = Binding affinity to ADAM10 RNA G-quadruplex (unknown origin) at 1 uM after 24 hrs by spectrophotometric method
[35] = test system: Mus musculus; experiment: Toxicity in nude Balb/c mouse xenografted with human MCF7 cells assessed as change in body weight at 7.5 mg/kg, ip qd for 20 days; format: organism-based; conditions: in vivo, 480 h
[36] = test system: Mus musculus; experiment: Downregulation of VEGF-A expression in tumor of Balb/c mouse xenografted with human MCF7 cells at 7.5 mg/kg, ip qd for 20 days by immunohistochemical analysis; format: functional, organism-based
[37] = species on record: Homo sapiens; experiment: Inhibition of BG4 antibody binding to internal ribosome entry site A RNA G-quadruplex in human MCF7 cells preincubated for 24 hrs followed by BG4 antibody addition measured after 12 hrs by dot blot hybridization assay; format: cell-based
[38] = species on record: Homo sapiens; experiment: Destabilization of human VEGF-A promoter DNA up to 5 uM by CD spectral analysis
[39] = Binding affinity to TERRA RNA G-quadruplex (unknown origin) at 1 uM after 24 hrs by spectrophotometric method
[40] = species on record: Homo sapiens; experiment: Destabilization of human 5'-UGAAGAGUGUGAGUAGUA-3' RNA expressed in MCF7 cells assessed as down regulation of VEGF-A translation at up to 1.5 uM after 24 hrs by dual-luciferase reporter gene assay; format: cell-based

CCN(CC)CCOc1ccc(Nc2nc(-c3ccccc3NC(=O)CCN3CCN(C)CC3)nc3ccccc23)cc1
Activity [1]: <300 mm3 | inhibition [2]: Active | Activity [3]: Active | Activity [4]: inactive | Activity [5]: inactive | inhibition [6]: Active | inhibition [7]: Active | Tm [8]: 62.2 °C | Kd [9]: 13.4 to 20.5 µM | Activity [10]: inactive | inhibition [11]: Active | Kd [12]: 1290 nM | Activity [13]: 82.7% | Activity [14]: inactive | Activity [15]: Dose-dependent effect | Activity [16]: inactive | Activity [17]: Active | Activity [18]: inactive | Activity [19]: inactive | inhibition [20]: Active | Activity [21]: inactive | Kd [22]: 928 nM | Activity [23]: Active | Activity [24]: inactive | Activity [25]: inactive | Activity [26]: 60.1% | Activity [27]: inactive | Activity [28]: Active | Activity [29]: 65.5% | Activity [30]: inactive | Activity [31]: Non-Toxic | Activity [32]: inactive | Kd [33]: 21.2 µM | Activity [34]: inactive | Activity [35]: Non-Toxic | Activity [36]: Active | inhibition [37]: Dose-dependent effect | Activity [38]: Active | Activity [39]: inactive | Activity [40]: inactive
